Source: patent US7407760B2 (priority 2003, dated 2008)
Read-outs that look alike come from different tables or passages of the source.

How the values were obtained:
[1] = molecular target: Syrian hamster Sc237 PrP27-30 / immunopurified hamster PrP^C (Mesocricetus auratus, UniProt P04273); type: biochemical
[2] = molecular target: T1, PrP^Sc (Mesocricetus auratus, UniProt P04273); type: biochemical, hamster
[3] = molecular target: T1, PrP^Sc; type: biochemical, hamster; details: for IC50: read-out: IC50 of inhibition of PrP^Sc amplification; for effect of chelating compounds on PrP^Sc amplification: no metal added; for effect on inhibition by CuCl2, added prior to CuCl2: 4 mM EDTA or 50 mM imidazole prior to 1 μM CuCl2; for effect on inhibition by CuCl2, added shortly after CuCl2: after 1 μM CuCl2
[4] = molecular target: Hamster Sc237 PrP^Sc (Mesocricetus auratus, UniProt P04273); type: biochemical
[5] = molecular target: PrP^C (Mesocricetus auratus, UniProt P04273)
[6] = molecular target: PrP^C/PrP^Sc binding (Mesocricetus auratus, UniProt P04273)
[7] = molecular target: T1, PrP^Sc; type: biochemical, hamster; remark: listed apart in the source
[8] = molecular target: T1, PrP^Sc

T1 sequence (P04273 23-231 limits assumed): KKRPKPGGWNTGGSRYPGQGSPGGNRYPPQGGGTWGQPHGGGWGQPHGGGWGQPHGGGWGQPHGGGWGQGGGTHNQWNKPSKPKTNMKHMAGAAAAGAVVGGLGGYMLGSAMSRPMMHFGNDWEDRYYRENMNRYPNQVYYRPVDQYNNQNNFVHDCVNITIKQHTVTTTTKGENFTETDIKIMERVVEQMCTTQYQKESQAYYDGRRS
Hamster Sc237 PrP^Sc, sequence (P04273 23-231 limits assumed): as above
Syrian hamster Sc237 PrP27-30 / immunopurified hamster PrP^C, sequence (P04273 23-231 limits assumed): as above
PrP^C/PrP^Sc binding, sequence (P04273 23-231 limits assumed): as above
PrP^C, sequence (P04273 23-231 limits assumed): as above

Compound: heparan sulfate
- stimulation of PrP^Sc amplification in the presence of copper [1]: No apparent stimulation
- stimulation of PrP^Sc amplification using purified substrate [1]: no effect

Compound: polyglutamic acid [polyglutamate]
- reconstitution of PrP^Sc amplification ([2]; benzonase-pretreated normal brain homogenate): failed to reconstitute PrP^Sc amplification
- level of stimulation compared with control stimulation by total hamster RNA ([1]; purified substrate): less than the level of control stimulation

Compound: [Cl][Mn][Cl] [MnCl2]
- effect of divalent metal compound on PrP^Sc amplification [3]: neither MnCl2 nor CoCl2 affected PrP^Sc amplification
- effect of pre-addition on CuCl2-mediated inhibition of PrP^Sc amplification [3]: did not influence the potency of CuCl2-mediated inhibition

Compound: [Cl-].[Cl-].[Zn+2] [ZnCl2]
- IC50 [3]: ~10 µM

Compound: Nc1ccn([C@@H]2O[C@H](CO)[C@@H](OP(=O)(O)O)[C@H]2O)c(=O)n1 [3′-cytidine monophosphate]
- inhibition of PrP^Sc amplification by RNase end-product nucleotides ([4]; concentrations up to 1 mM): Neither of these nucleotides inhibited PrP^Sc amplification

Compound: Cc1ccc2ccc3ccc(C)nc3c2n1 [neocuproine]
- effect of chelating compounds on PrP^Sc amplification [3]: not influenced

Compound: DNase
- effect of added enzyme on PrP^Sc amplification [4]: did not decrease PrP^Sc amplification

Compound: glycogen
- stimulation of PrP^Sc amplification using purified substrate [1]: did not stimulate the formation of PrP^Sc

Compound: Nc1nc2c(ncn2[C@@H]2O[C@H](CO)[C@H]3OP(=O)(O)O[C@H]32)c(=O)[nH]1 [cyclic 2′,3′-GMP, 2′,3′-cyclic guanosine monophosphate]
- inhibition of PrP^Sc amplification by RNase end-product nucleotides [4]: Neither of these nucleotides inhibited PrP^Sc amplification

Compound: poly(U)
- stimulation of PrP^Sc amplification using purified substrate [1]: potently stimulated PrP^Sc amplification

Compound: heparan sulfate proteoglycan
- reconstitution of PrP^Sc amplification [2]: failed to reconstitute PrP^Sc amplification
- stimulation of PrP^Sc amplification [1]: stimulated PrP^Sc amplification only moderately

Compound: heparinase III
- effect of added enzyme on PrP^Sc amplification [4]: no effect

Compound: [Cl][Cu][Cl] [CuCl2]
- IC50 [3]: ~1 µM
- quantity or protease-resistance of input PrP^C or PrP^Sc molecules by themselves [5]: did not affect the quantity or protease-resistance
- PrP^C/PrP^Sc binding, ratio of PrP^C to PrP27-30 in the pellet [6]: 0.46

Compound: c1c[nH]cn1 [imidazole]
- effect on PrP^Sc amplification of preparation “X” ([7]; 5 mM): restored PrP^Sc amplification
- effect on PrP^Sc amplification of preparation “X” ([7]; 50 mM): restored the ability of this preparation to serve as a substrate
- effect on PrP^Sc amplification of preparation “X” ([7]; 250 mM): inhibited PrP^Sc amplification
- effect on inhibition by CuCl2, added prior to CuCl2 [3]: prevented inhibition of PrP^Sc amplification
- effect on inhibition by CuCl2, added shortly after CuCl2 [3]: failed to rescue PrP^Sc amplification

Compound: poly(C)
- stimulation of PrP^Sc amplification using purified substrate [1]: failed to stimulate PrP^Sc amplification at all concentrations tested

Compound: O=C(O)CN(CCN(CC(=O)O)CC(=O)O)CC(=O)O [EDTA]
- effect on inhibition by CuCl2, added prior to CuCl2 [3]: prevented inhibition of PrP^Sc amplification
- effect on inhibition by CuCl2, added shortly after CuCl2 [3]: failed to rescue PrP^Sc amplification
- effect of chelating compounds on PrP^Sc amplification [3]: not influenced

Compound: apyrase
- effect of added enzyme on PrP^Sc amplification [4]: no effect

Compound: Sodium pentosan polysulfate [pentosan sulfate]
- stimulation of PrP^Sc amplification [1]: stimulated PrP^Sc amplification only moderately

Compound: polyadenylic acid [poly(A)]
- reconstitution of PrP^Sc amplification [2]: failed to reconstitute PrP^Sc amplification
- concentration at which PrP^Sc amplification was stimulated [1]: 1 µg/mL
- threshold size required for stimulation of PrP^Sc amplification [1]: ~300 bases
- propagation of PrP^Sc conformation in serial PMCA [8]: stimulated the propagation process
